Patent US20250270222A1, “AP2 ASSOCIATED KINASE 1 INHIBITORS AND USES THEREOF” (Satellos Bioscience Inc., priority 2023, published 2025)

Assays:
[1] = target: GAK (amino acids Q25-N335) (Homo sapiens (Human), UniProt O14976); experiment: GAK pSENs assay; format: biochemical
Method: (§1) The recombinant proteins were independently expressed in Esherichia coli BL21(DE3) cells cultured in Luria-Bertani (LB) medium until OD600 reached 0.6-0.8, then cooled to 15° C., and supplemented with 0.5 mM isopropyl 1-thio-D-galactopyranoside (IPTG) induce protein expression 16 h. Cells were harvested and resuspended in lysis buffer (50 mM HEPES pH 7.5, 500 mM NaCl, 5 mM imidazole, 5% glycerol, 0.5 mM Tris (2-carboxyethyl) phosphine (TCEP), cOmplete Protease Inhibitor Tablet (Roche)) and lysed by microfluidics high pressure homogenizer (UH-06, Union-Biotech). Proteins were purified using Ni-Affinity chromatography (His FF column, Bestchrom) and eluted stepwise in binding buffer with 20-300 mM imidazole. Removal of the hexahistidine tag was performed at 4° C. overnight using recombinant TEV protease and reacted with BirA to obtain the corresponding biotinylated-AAK1. BIKE or GAK proteins. Further separated in the reverse Strep column (Strep-Tactin® XT, IBA). The Biotin elution sample was collected containing untagged biotinylated protein was then purified by Ion-exchange chromatography (Mono Q 10/100 GL, Cytiva) and Size-exclusion chromatography (HiLoad 16/600 Superdex 200 pg, Cytiva). The pure protein was stored in a storage buffer 50 mM HEPES (pH 7.5), 300 mM NaCl, 5% glycerol at −80° C. Protein were characterized by SDS-PAGE. LC-MS and aSEC.
This example describes one illustrative method for determining the IC50 of the compounds of the present invention against GAK (amino acids Q25-N335).

[2] = target: AAK1 (amino acids T27-A365) (Homo sapiens (Human), UniProt Q2M2I8); experiment: AAK1 pSENs assay; format: biochemical; conditions: ratio of AAK1 pSENs activity to GAK pSENs activity
AAK1 (amino acids T27-A365), sequence (Q2M2I8 27-365): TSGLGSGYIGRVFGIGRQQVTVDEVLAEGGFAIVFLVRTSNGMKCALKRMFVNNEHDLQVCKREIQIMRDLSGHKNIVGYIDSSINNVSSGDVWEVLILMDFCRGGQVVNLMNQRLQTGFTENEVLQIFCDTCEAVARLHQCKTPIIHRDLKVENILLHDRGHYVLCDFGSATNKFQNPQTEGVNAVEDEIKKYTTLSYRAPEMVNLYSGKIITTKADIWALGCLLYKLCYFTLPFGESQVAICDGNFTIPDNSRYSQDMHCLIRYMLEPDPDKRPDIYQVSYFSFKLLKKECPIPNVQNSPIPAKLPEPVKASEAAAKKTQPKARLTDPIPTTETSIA
Method: as §1
This example describes one illustrative method for determining the IC50 of the compounds of the present invention against AAK1 (amino acids T27-A365). AAK1 protein was dissolved at 20 nM in 1× enzyme solution (50 mM HEPES pH7.5, 10 mM MgCl2, 1 mM DTT, 1% glycerol, 0.5 mM EGTA, 0.01% Briji35, 0.02% BSA) and 12.5 ul was incubated with 250 nl DMSO or 250 nl compound in DMSO at 25° C. for 15 min. The reaction was started by addition of 12.5 ul of 30 uM AQT0759 (Assayquant, CSKS-AQT0759B) and 70 uM ATP which were diluted in 1× substrate dilution buffer (50 mM HEPES pH7.5, 10 mM MgCl2, 1 mM DTT, 1% glycerol, 0.5 mM EGTA, 0.01% Briji35).

GAK (amino acids Q25-N335), sequence (O14976 25-335): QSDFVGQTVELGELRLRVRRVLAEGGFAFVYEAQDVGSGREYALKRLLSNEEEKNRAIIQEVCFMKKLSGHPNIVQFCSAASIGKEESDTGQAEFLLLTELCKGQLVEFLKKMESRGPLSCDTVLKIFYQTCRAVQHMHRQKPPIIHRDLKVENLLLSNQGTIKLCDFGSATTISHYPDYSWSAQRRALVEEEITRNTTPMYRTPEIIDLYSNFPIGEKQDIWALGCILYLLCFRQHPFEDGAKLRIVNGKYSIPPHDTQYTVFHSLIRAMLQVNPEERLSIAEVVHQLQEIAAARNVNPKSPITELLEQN

| SMILES | IC50 [1] [nM] | AAK1:GAK pSENs Selectivity [2] |
| --- | --- | --- |
| CC(C)Oc1ncccc1-c1cnn2ccc(N3CCN(C(=O)OC4(C)COC4)CC3)nc12 [Compound I-1, (3-methyloxetan-3-yl)-4-[3-(2-isopropoxy-3-pyridyl)pyrazolo[1,5-a]pyrimidin-5-yl]piperazine-1-carboxylate] | > 1500 | A (A: ≤0.015) |
| CC1(OC(=O)N2CCN(c3ccn4ncc(-c5cccnc5OC5CC5)c4n3)CC2)COC1 [Compound I-2, (3-methyloxetan-3-yl)-4-[3-[2-(cyclopropoxy)-3-pyridyl]pyrazolo[1,5-a]pyrimidin-5-yl]piperazine-1-carboxylate] | > 1500 | A (A: ≤0.015) |
| COc1ncccc1-c1cnn2ccc(N3CCN(C(=O)OC4CNC(=O)C4)CC3)nc12 (stereo not drawn) [Compound I-6, (5-Oxopyrrolidin-3-yl) 4-[3-(2-methoxy-3-pyridyl)pyrazolo[1,5-a]pyrimidin-5-yl]piperazine-1-carboxylate] | > 1500 | A (A: ≤0.015) |
| O=C1C[C@@H](OC(=O)N2CCN(c3ccn4ncc(-c5cccnc5OC5CC5)c4n3)CC2)CN1 [Compound I-10, [(3R)-5-Oxopyrrolidin-3-yl]-4-[3-[2-(cyclopropoxy)-3-pyridyl]pyrazolo[1,5-a]pyrimidin-5-yl]piperazine-1-carboxylate] | > 1500 | A (A: ≤0.015) |
| O=C1C[C@H](OC(=O)N2CCN(c3ccn4ncc(-c5cccnc5OC5CC5)c4n3)CC2)CN1 [Compound I-11, [(3S)-5-Oxopyrrolidin-3-yl]-4-[3-[2-(cyclopropoxy)-3-pyridyl]pyrazolo[1,5-a]pyrimidin-5-yl]piperazine-1-carboxylate hydrochloric acid] | > 1500 | A (A: ≤0.015) |
| CC1(OC(=O)N2CCN(c3ccn4ncc(-c5cccnc5OC5COC5)c4n3)CC2)COC1 [Compound I-18, (3-Methyloxetan-3-yl)-4-[3-[2-(oxetan-3-yloxy)-3-pyridyl]pyrazolo[1,5-a]pyrimidin-5-yl]piperazine-1-carboxylate] | > 1500 | A (A: ≤0.015) |
| CN(CCNc1ccn2ncc(-c3cccnc3OC3CC3)c2n1)C(=O)O[C@H]1CO[C@H]2OCC[C@H]21 [Compound I-71, (3R,3aS,6aR)-hexahydrofuro[2,3-b]furan-3-yl (2-((3-(2-cyclopropoxypyridin-3-yl)pyrazolo[1,5-a]pyrimidin-5-yl)amino)ethyl)(methyl)carbamate] | – | B (B: 0.016-0.075) |
| [2H]C1([2H])N(C(=O)O[C@H]2CC(=O)N(C)C2)C([2H])([2H])C([2H])([2H])N(c2ccn3ncc(-c4cccnc4OC4CC4)c3n2)C1([2H])[2H] [Compound I-73, [(3S)-1-methyl-5-oxo-pyrrolidin-3-yl]-4-[3-[2-(cyclopropoxy)-3-pyridyl]pyrazolo[1,5-a]pyrimidin-5-yl]-2,2,3,3,5,5,6,6-octadeuterio-piperazine-1-carboxylate] | > 1500 | – |
| COc1cnc(OC2CC2)c(-c2cnn3ccc(N4CCN(C(=O)O[C@H]5CC(=O)N(C)C5)CC4)nc23)c1 [Compound I-87] | – | A (A: ≤0.015) |
| CN1C[C@@H](OC(=O)N2CCN(c3ccn4ncc(-c5cc(OC(F)(F)F)cnc5OC5CC5)c4n3)CC2)CC1=O [Compound I-88] | – | B (B: 0.016-0.075) |
| CN1C[C@H](OC(=O)N2CCN(c3ccn4ncc(-c5cccnc5OC5CC5)c4n3)CC2)CC1=O [Compound I-94] | – | A (A: ≤0.015) |
| CN1C[C@@H](OC(=O)N2CCN(c3ccn4ncc(Cl)c4n3)CC2)CC1=O [Compound I-96, [(3S)-1-methyl-5-oxo-pyrrolidin-3-yl]-4-(3-chloropyrazolo[1,5-a]pyrimidin-5-yl)piperazine-1-carboxylate] | – | E (E: >1.00) |
| CN1C[C@@H](OC(=O)N2CCN(c3ccn4nccc4n3)CC2)CC1=O [Compound I-97, [(3S)-1-methyl-5-oxo-pyrrolidin-3-yl]-4-pyrazolo[1,5-a]pyrimidin-5-ylpiperazine-1-carboxylate] | – | E (E: >1.00) |
| CN1C[C@@H](OC(=O)N2CCN(c3ccn4ncc(-c5cccnc5O)c4n3)CC2)CC1=O [Compound I-98, [(3S)-1-methyl-5-oxo-pyrrolidin-3-yl]-4-[3-(2-hydroxy-3-pyridyl)pyrazolo[1,5-a]pyrimidin-5-yl]piperazine-1-carboxylate] | – | C (C: 0.076-0.15) |
| CC(C)(C)OC(=O)N1CCN(c2ccn3ncc(Cl)c3n2)CC1 [Compound I-100, tert-butyl 4-(3-chloropyrazolo[1,5-a]pyrimidin-5-yl)piperazine-1-carboxylate] | – | D (D: 0.16-1.00) |
| CC(C)(C)OC(=O)N1CCN(c2ccn3ncc(-c4cccnc4O)c3n2)CC1 [Compound I-102, tert-butyl 4-[3-(2-hydroxy-3-pyridyl)pyrazolo[1,5-a]pyrimidin-5-yl]piperazine-1-carboxylate] | – | A (A: ≤0.015) |
| Brc1cnn2ccc(N3CCNCC3)nc12 [Compound I-103, 3-bromo-5-piperazin-1-yl-pyrazolo[1,5-a]pyrimidine] | – | E (E: >1.00) |
| Clc1cnn2ccc(N3CCNCC3)nc12 [Compound I-104, 3-chloro-5-piperazin-1-yl-pyrazolo[1,5-a]pyrimidine] | – | E (E: >1.00) |
| c1cc2nc(N3CCNCC3)ccn2n1 [Compound I-105, 5-piperazin-1-ylpyrazolo[1,5-a]pyrimidine] | – | E (E: >1.00) |
| Oc1ncccc1-c1cnn2ccc(N3CCNCC3)nc12 [Compound I-106, 3-(5-piperazin-1-ylpyrazolo[1,5-a]pyrimidin-3-yl)pyridin-2-ol] | – | C (C: 0.076-0.15) |
| [2H]C([2H])([2H])N1C[C@@H](OC(=O)N2CCN(c3nc4c(-c5cc(OC)cnc5OC5CC5)cnn4cc3F)CC2)CC1=O [Compound I-117, [(3S)-5-oxo-1-(trideuteriomethyl)pyrrolidin-3-yl]4-[3-[2-(cyclopropoxy)-5-methoxy-3-pyridyl]-6-fluoro-pyrazolo[1,5-a]pyrimidin-5-yl]piperazine-1-carboxylate] | – | A (A: ≤0.015) |
| CC(C)(C)OC(=O)NCCNc1nc2c(-c3cccnc3OC3CC3)cnn2cc1F [Compound I-124, tert-butyl N-[2-[[3-[2-(cyclopropoxy)-3-pyridyl]-6-fluoro-pyrazolo[1,5-a]pyrimidin-5-yl]amino]ethyl]carbamate] | – | C (C: 0.076-0.15) |
| CC(C)(C)OC(=O)NCCNc1ccc2ncc(-c3cccnc3OC3CC3)n2n1 [Compound I-129, tert-butyl N-[2-[[3-[2-(cyclopropoxy)-3-pyridyl]imidazo[1,2-b]pyridazin-6-yl]amino]ethyl]carbamate] | – | C (C: 0.076-0.15) |
| COc1ncccc1-c1cnn2ccc(N3CCN(C(=O)OC4(C)COC4)CC3)nc12 [RC-1, (3-methyloxetan-3-yl)-4-[3-(2-methoxy-3-pyridyl)pyrazolo[1,5-a]pyrimidin-5-yl]piperazine-1-carboxylate, reference compound] | – | 0.0083 |
